Source: patent publication US9238039B2, “Pyrazolo[1,5-A]pyrimidines for antiviral treatment” (Gilead Sciences, Inc., priority 2010, dated 2016)

Tested on: RSV strain A2
Test: RSV antiviral cytoprotection assay in Hep2 cells (96-well and 384-well format, Cell TiterGlo read-out)
Assay type: cell-based, Respiratory Syncytial Virus (RSV)
Settings: human respiratory syncytial virus; for inhibition at 0.5 µM: HEp-2, 0.5 uM; for EC50: HEp-2, RSV-induced cytopathic effects, Hep2 cells, class symbols
[1] = RSV-induced cytopathic effect in Hep2 cells, calculated from fitted dose response curve, normalized to 0% and 100%

Row | Structure (SMILES) | EC50 [nM] | inhibition at 0.5 µM [1] [%] | inhibition at 1 µM (HEp-2, 1 uM, RSV-induced cytopathic effect in Hep2 cells, calculated from fitted dose response curve, normalized to 0% and 100%) [%]
1 | Cc1cc(C2CC2)nc2cc([C@@H]3CCCCN3C(=O)C(NC(=O)OC(C)(C)C)c3ccccc3)nn12 (stereo partly drawn) [Compound 242] | 101 to 1000 | 72 | 
2 | CS(=O)(=O)Nc1ccc(Cl)cc1C(=O)N1CCCC[C@H]1c1cc2nc(N3CCC3)cc(N3CCN(CCF)CC3)n2n1 [Compound 166] | 0.1 to 100 | 100 | 
3 | Cc1cc(C2CC2)nc2cc([C@@H]3CCCCN3C(=O)C(NC(=O)OC(C)(C)C)c3cccc(Cl)c3)nn12 (stereo partly drawn) [Compound 238] | 101 to 1000 | 100 | 
4 | CS(=O)(=O)Nc1ccc(Cl)cc1C(=O)N1CCCC[C@H]1c1cc2nc(N3CCC3)cc(N3CCOC3)n2n1 [Compound 74] | 0.1 to 100 | 100 | 
5 | Cc1ccc(NS(C)(=O)=O)c(C(=O)N2CCCC[C@H]2c2cc3nc(N4CC[C@@H](C#N)C4)c(C)cn3n2)c1 [Compound 188] | 0.1 to 100 | 100 | 
6 | CS(=O)(=O)Nc1ccc(Cl)cc1C(=O)N1CCCC[C@H]1c1cc2nc(N3CC(N)C3)cc(N3CC(N)C3)n2n1 [Compound 131] | 0.1 to 100 | 100 | 
7 | Cc1ccc(O)cc1C(=O)N1CCCC[C@H]1c1cc2nc(N3CC[C@H](N)C3)c(C)cn2n1 [Compound 292] | 101 to 1000 | 59 | 
8 | Cc1cn2nc([C@@H]3CCCCN3C(=O)c3cc(Cl)ccc3NS(C)(=O)=O)cc2nc1N1CC[C@@H](C)C1 [Compound 204] | 0.1 to 100 | 98 | 
9 | CS(=O)(=O)Nc1ccc(Br)cc1C(=O)N1CCCC[C@H]1c1cc2nc(N3CC(O)C3)cc(N3CCOCC3)n2n1 [Compound 80] | 0.1 to 100 | 100 | 
10 | Cc1ccc(NS(C)(=O)=O)c(C(=O)N2CCCC[C@H]2c2cc3nc(N4CCC4)c(C)cn3n2)c1 [Compound 189] | 0.1 to 100 | 100 | 
11 | Cc1ccc(NS(C)(=O)=O)c(C(=O)N2CCCC[C@H]2c2cc3nc(C)c(C)c(C4CC4)n3n2)c1 [Compound 87] | 101 to 1000 | 84 | 
12 | C[C@H]1CN(c2cc(N3CCC3)nc3cc([C@@H]4CCCCN4C(=O)c4cc(Cl)ccc4NS(C)(=O)=O)nn23)CCN1 [Compound 155] | 0.1 to 100 | 100 | 
13 | CS(=O)(=O)Nc1ccc(Cl)cc1C(=O)N1CCCC[C@H]1c1cc2nc(C3CC3)cc(N3CCOCC3)n2n1 [Compound 63] | 0.1 to 100 | 98 | 
14 | Cc1cn2nc([C@@H]3CCCCN3C(=O)c3nccs3)cc2nc1N1CC[C@H](N)C1 [Compound 268] | 101 to 1000 | 76 | 
15 | CS(=O)(=O)Nc1ccc(Br)cc1C(=O)N1CCCC[C@H]1c1cc2nc(N3CCC3)cc(N3CCOCC3)n2n1 [Compound 79] | 0.1 to 100 | 100 | 
16 | Cc1cn2nc([C@@H]3CCCCN3C(=O)c3cc(Cl)ccc3NS(C)(=O)=O)cc2nc1N1CCC[C@H]1C#N [Compound 200] | 0.1 to 100 | 95 | 
17 | Cc1cc(C)n2ncc(C(=O)N3CCCC[C@H]3c3cc4nc(N5CC[C@H](N)C5)c(C)cn4n3)c2n1 [Compound 394] | 0.1 to 100 | 100 | 
18 | CN1CCCN(c2cc(N3CCC3)nc3cc([C@@H]4CCCCN4C(=O)c4cc(Cl)ccc4NS(C)(=O)=O)nn23)CC1 [Compound 173] | 0.1 to 100 | 100 | 
19 | Cc1cn2nc([C@@H]3CCCCN3C(=O)c3scc4c3OCCO4)cc2nc1N1CC[C@H](N)C1 [Compound 373] | 0.1 to 100 | 99 | 
20 | Cc1cn2nc([C@@H]3CCCCN3C(=O)c3cc(Cl)ccc3NS(C)(=O)=O)cc2nc1-c1ccccc1 [Compound 134] | 0.1 to 100 | 98 | 
21 | C[C@@H]1CN(c2cc(N3CCC3)nc3cc([C@@H]4CCCCN4C(=O)c4cc(Cl)ccc4NS(C)(=O)=O)nn23)C[C@H](C)N1 [Compound 163] | 0.1 to 100 | 100 | 
22 | Cc1cn2nc([C@@H]3CCCCN3C(=O)c3cccc(N)c3)cc2nc1N1CC[C@H](C#N)C1 [Compound 153] | 0.1 to 100 | 100 | 
23 | Cc1cn2nc([C@@H]3CCCCN3C(=O)c3ncc(F)cc3F)cc2nc1N1CC[C@H](N)C1 [Compound 310] | 0.1 to 100 | 100 | 
24 | Cc1cn2nc([C@@H]3CCCCN3C(=O)c3cc(Cl)ccc3NS(C)(=O)=O)cc2nc1N1CCC(c2ccccn2)C1 (stereo partly drawn) [Compound 209] | 101 to 1000 | 88 | 
25 | Cc1cn2nc([C@@H]3CCCCN3C(=O)c3cc(Cl)ccc3NS(C)(=O)=O)cc2nc1NC(=N)N [Compound 139] | 0.1 to 100 | 99 | 
26 | Cc1cn2nc([C@@H]3CCCCN3C(=O)c3cc(Cl)ccc3NS(C)(=O)=O)cc2nc1N1CC(=O)C1 [Compound 170] | 0.1 to 100 | 100 | 

Continued, in another order:

Row | EC50 [nM] | Structure (SMILES) | inhibition at 0.5 µM [1] [%] | inhibition at 1 µM (HEp-2, 1 uM, RSV-induced cytopathic effect in Hep2 cells, calculated from fitted dose response curve, normalized to 0% and 100%) [%]
27 | 0.1 to 100 | Cc1ccc(C)c(C(=O)N2CCCC[C@H]2c2cc3nc(N4CC[C@H](N)C4)c(C)cn3n2)c1 [Compound 161] | 100 | 
28 | 0.1 to 100 | Cc1ccc(NS(C)(=O)=O)c(C(=O)N2CCCC[C@H]2c2cc3nc(N4CC[C@H](N)C4)c(C)cn3n2)c1 [Compound 190] | 100 | 
29 | 0.1 to 100 | Cc1ccc(NS(C)(=O)=O)c(C(=O)N2Cc3ccccc3C[C@H]2c2cc3nc(C)c(C)cn3n2)c1 [Compound 35] | 96 | 
30 | 0.1 to 100 | Cc1cn2nc([C@@H]3CCCCN3C(=O)c3c(C)cccc3NS(C)(=O)=O)cc2nc1N1CCC1 [Compound 225] | 100 | 
31 | 0.1 to 100 | Cc1cn2nc([C@@H]3CCCCN3C(=O)c3[nH]c4ccc(F)cc4c3C)cc2nc1N1CC[C@H](N)C1 [Compound 398] | 99 | 
32 | 0.1 to 100 | Cc1cc(C2CC2)nc2cc([C@@H]3CCCCN3C(=O)C(NS(C)(=O)=O)c3ccccc3)nn12 (stereo partly drawn) [Compound 241] | 99 | 
33 | 0.1 to 100 | Cc1ccc(NS(C)(=O)=O)c(C(=O)N2CCCC[C@H]2c2cc3nc(N4CCC4)cc(N4CCOCC4)n3n2)c1 [Compound 194] | 100 | 
34 | 0.1 to 100 | CC(=O)Nc1ccc(C)cc1C(=O)N1CCCC[C@H]1c1cc2nc(N3CC(N)C3)c(C)cn2n1 [Compound 222] | 100 | 
35 | 0.1 to 100 | Cc1cn2nc([C@@H]3CCCCN3C(=O)c3cn4ccccc4n3)cc2nc1N1CC[C@H](N)C1 [Compound 311] | 100 | 
36 | 0.1 to 100 | Cc1cn2nc([C@@H]3CCCCN3C(=O)c3cc(Cl)ccc3NS(C)(=O)=O)cc2nc1N1CC(N)C(C#N)C1 (stereo partly drawn) [Compound 186] | 100 | 
37 | 0.1 to 100 | Cc1cn2nc([C@@H]3CCCCN3C(=O)c3cc(Cl)ccc3NS(C)(=O)=O)cc2nc1N(C)CCO [Compound 150] | 97 | 
38 | 0.1 to 100 | Cc1ccc(NS(C)(=O)=O)c(C(=O)N2Cc3ccccc3C[C@H]2c2cc3nc(C)c(C)c(N(C)C)n3n2)c1 [Compound 34] | 91 | 
39 | 0.1 to 100 | CC(=O)Nc1ccc(Cl)cc1C(=O)N1CCCC[C@H]1c1cc2nc(N3CC[C@H](N)C3)c(C)cn2n1 [Compound 223] | 100 | 
40 | 0.1 to 100 | CCc1ccc(C(=O)N2CCCC[C@H]2c2cc3nc(N4CC[C@H](N)C4)c(C)cn3n2)s1 [Compound 304] | 100 | 
41 | 0.1 to 100 | Cc1cn2nc([C@@H]3CCCCN3C(=O)c3nnn(C)c3C)cc2nc1N1CC[C@H](N)C1 [Compound 285] | 100 | 
42 | 0.1 to 100 | Cc1cn2nc([C@@H]3CCCCN3C(=O)c3cc(Cl)ccc3NS(C)(=O)=O)cc2nc1N[C@H](C)CO [Compound 149] | 98 | 
43 | 0.1 to 100 | COc1ccc(C(=O)N2CCCC[C@H]2c2cc3nc(N4CC[C@H](N)C4)c(C)cn3n2)c(C)c1 [Compound 322] | 100 | 
44 | 0.1 to 100 | Cc1ccnc(C(=O)N2CCCC[C@H]2c2cc3nc(N4CC[C@H](N)C4)c(C)cn3n2)c1 [Compound 272] | 100 | 
45 | 0.1 to 100 | Cc1cn2nc([C@@H]3CCCCN3C(=O)c3cc(Cl)ccc3NS(C)(=O)=O)cc2nc1N1CC(OC(=O)CN)C1 [Compound 172] | 100 | 
46 | 0.1 to 100 | COc1ccc(NS(C)(=O)=O)c(C(=O)N2CCCC[C@H]2c2cc3[nH]c(C)c(C)c(=O)n3n2)c1 [Compound 10] | 94 | 99
47 | 0.1 to 100 | Cc1cc(C2CC2)nc2cc([C@@H]3CCCCN3C(=O)c3cc(N)ccc3NS(C)(=O)=O)nn12 [Compound 114] | 100 | 
48 | 0.1 to 100 | Cc1cc(C2CC2)nc2cc([C@@H]3CCCCN3C(=O)C(NC(=O)OC(C)(C)C)c3ccccc3Br)nn12 (stereo partly drawn) [Compound 237] | 99 | 
49 | 0.1 to 100 | Cc1cc(N2CC(N)C2)nc2cc([C@@H]3CCCCN3C(=O)c3cc(Cl)ccc3NS(C)(=O)=O)nn12 [Compound 52] | 100 | 
50 | 0.1 to 100 | Cc1nc(C(=O)N2CCCC[C@H]2c2cc3nc(N4CC[C@H](N)C4)c(C)cn3n2)cs1 [Compound 288] | 100 | 
51 | 0.1 to 100 | COc1ccc(Cl)c(C(=O)N2CCCC[C@H]2c2cc3nc(N4CC[C@H](N)C4)c(C)cn3n2)c1 [Compound 374] | 100 | 
52 | 0.1 to 100 | Cc1ccc(NS(C)(=O)=O)c(C(=O)N2CCCC[C@H]2c2cc3nc(N4CC(N)C4)c(C)cn3n2)c1 [Compound 191] | 100 | 
53 | 0.1 to 100 | CCOc1ccccc1C(=O)N1CCCC[C@H]1c1cc2nc(N3CC[C@H](N)C3)c(C)cn2n1 [Compound 323] | 100 | 
54 | 0.1 to 100 | Cc1cn2nc([C@@H]3CCCCN3C(=O)c3ccccc3CO)cc2nc1N1CC[C@H](N)C1 [Compound 291] | 88 | 
55 | 0.1 to 100 | Cc1cn2nc([C@@H]3CCCCN3C(=O)c3cc(Cl)cnc3O)cc2nc1N1CC[C@H](N)C1 [Compound 345] | 100 | 
